Among the data in patent US8030327B2 (MDS K.K., priority 2004, dated 2011) are EC50 and IC50 values, retold here.

As a reminder, the EC50 is the concentration at which the effect is half-maximal.

One assay has as its system HeLaS3 cells. In words: PLK1 inhibitory activity at cellular level: M phase arrest by phospho-histone H3 (Ser10) immunofluorescence. It counts as cell-based, human. The following applies: HeLaS3 cells synchronized at G1/S; 12 hours after addition; concentration inducing 50% of maximum ratio of cells arrested at M phase. As to the method: For the measurement of the PLK 1 inhibitory activity of the compound at the cellular level, human uterine cervix cell lines HeLaS3 cells were used. The HeLaS3 cell was obtained from American Type Culture Collection (ATTC), and cultured in a CO2-incubator of saturated steam, in the presence of 5% CO2, by using Dulbecco's Modified Eagle's Medium containing 10% fetal calf serum at 37° C.
It has been reported that PLK 1 plays an important role in various stages of mitotic phase (M-phase) in mammalian cells (Nature Review Molecular Cell Biology (Nat. Rev. Mol. Cell. Biol.), Vol. 5, 429, (2004)). In fact, when the mammalian cells are treated with PLK 1 siRNA to control the expression level, the cell cycle progression is inhibited and thus the cell is arrested at M phase. In addition, when examining the phosphorylation level of serine (10th residue on histone H3) which is thought to be required for a chromosome condensation in M phase, is examined, it is observed that the level is enhanced to a high level. Thus, after treating the cell with the compound according to the invention, the phosphorylation level of histone H3 was examined by the indirect fluorescent antibody technique, the cells arrested at M phase were identified by using the level thereof as an indicator to analyze the ratio of cells arrested at M phase, and then EC50 value of each compound was calculated to evaluate the PLK 1 inhibitory activity at a cellular level.
First, HeLaS3 cells synchronized at the G1/S phase by the double-thymidine method were seeded into a lysine-treated 96-well plate (Falcon Corp.) in the ratio of 8,000 per one well, and allowed to stand still in the above-mentioned CO2 incubator. 4 hours after the seeding, the compound according to the invention, which is diluted in series, was added into each well of the plate, and further allowed to stand still in the CO2 incubator. 12 hours after the addition of the compound according to the invention, the culture medium containing the compound according to the invention in each well of the plate was removed, and then 100 μL of ice-cold 100% methanol (Wako Pure Chemical Industries, Ltd.) was added, to carry out cell fixation for 10 minutes and treatment for increasing the membrane permeability. Subsequently, to the wells in which the methanol was removed, 50 μL of 1% BSA/PBS was added, and then blocking was carried out for 30 minutes. Thereafter, for the primary antibody reaction, 50 μL of 1% BSA/PBS containing a 2.5 mg/mL Anti-phospho Histone H3 (Ser10) antibody (Upstate Corp.) was added, and the plate was left over at room temperature for 90 minutes. After terminating the reaction, each well was once washed with PBS, and for the second antibody reaction, 50 μL of 1% BSA/PBS containing 1.5 mg/mL Cy5-labelled anti-rabbit IgG (H+ L) antibody (Chemicon) and 10 ug/mL DAPI (Sigma) which is a nucleus staining regent, was added to the wells, and further left over at room temperature for 90 minutes. After terminating the reaction, the reaction solution in wells was removed and replaced with 100 μL of PBS, and then fluorescence images were captured by using IN Cell Analyzer 1000 (manufactured by GE Amersham) to analyze the ratio of the cells arrested at M phase (Mitotic index) in each view.

Another assay has as its target T1, full-length human PLK1 (Homo sapiens, UniProt P53350).
T1 construct: a baculovirus expressing full-length human PLK1; GST (glutathione S-transferase) (N, cleaved yes); made in house; host or cells: Spodoptera frugiperda Sf9 insect cells (baculovirus)
In words: Measurement of PLK1 activity (33P-ATP, phosphocellulose filter). It counts as biochemical. The following applies: 50 μM substrate peptide, 50 μM ATP, 25° C., 20 minutes, read-out: PLK1 inhibitory activity.

Assay [1] concerns the target T2, PLK1-T210D (human active type PLK1) (Homo sapiens, UniProt P53350, T210D).
T2 construct: a baculovirus expressing full-length human PLK1; GST (glutathione S-transferase) (N); made in house; host or cells: insect cells (baculovirus)
In words: Measurement of PLK1-T210D activity (33P-ATP, phosphocellulose filter). It counts as biochemical. The following applies: 50 μM substrate peptide, 50 μM ATP, 25° C., 20 minutes, read-out: PLK1-T210D inhibitory activity.
Protocol: For the measurement of the PLK1 and PLK1-T210D activity, a synthetic peptide (aspartic acid-glutamic acid leucine-methionine-glutamic acid-alanine-serine-phenylalanine-alanine-aspartic acid-glutamine-aspartic acid-alanine-lysine) in which the serine surrounding sequence of the amino acid sequence No. 198 of CDC25C having been reported as the site for PLK1 substrate [EMBO Report, Vol. 3, 341 (2002)] is altered, was used as a substrate.
The volume of the reaction solution was 21.1 μL and the composition of the reaction buffer was 20 mM tris-hydrochloric acid buffer (pH 7.4)/10 mM magnesium chloride/0.5 mM dithiothreitol/1 mM EGTA (ethylene glycol-bis(beta-aminoethylether)-N,N,N′,N′,-tetraacetic acid). Thereto, purified PLK 1, 50 μM of the substrate peptide, 50 μM of non-labeled adenosine triphosphate (ATP), and 1 μCi of [γ-^33P]-labeled ATP (2000 to 4000 Ci/mmole) were added to carry out the reaction at 25° C. for 20 minutes. Then, 10 μL of 350 mM phosphate buffer was added to the reaction system to terminate the reaction. The resultant solution was spotted onto a multi-screen phosphocellulose filter on a 96-well plate. After washing the phosphocellulose filter with 75 mM phosphate buffer, the filter was dried to measure the radioactivity with a liquid scintillation counter. […]

T2 sequence (P53350 whole entry T210D): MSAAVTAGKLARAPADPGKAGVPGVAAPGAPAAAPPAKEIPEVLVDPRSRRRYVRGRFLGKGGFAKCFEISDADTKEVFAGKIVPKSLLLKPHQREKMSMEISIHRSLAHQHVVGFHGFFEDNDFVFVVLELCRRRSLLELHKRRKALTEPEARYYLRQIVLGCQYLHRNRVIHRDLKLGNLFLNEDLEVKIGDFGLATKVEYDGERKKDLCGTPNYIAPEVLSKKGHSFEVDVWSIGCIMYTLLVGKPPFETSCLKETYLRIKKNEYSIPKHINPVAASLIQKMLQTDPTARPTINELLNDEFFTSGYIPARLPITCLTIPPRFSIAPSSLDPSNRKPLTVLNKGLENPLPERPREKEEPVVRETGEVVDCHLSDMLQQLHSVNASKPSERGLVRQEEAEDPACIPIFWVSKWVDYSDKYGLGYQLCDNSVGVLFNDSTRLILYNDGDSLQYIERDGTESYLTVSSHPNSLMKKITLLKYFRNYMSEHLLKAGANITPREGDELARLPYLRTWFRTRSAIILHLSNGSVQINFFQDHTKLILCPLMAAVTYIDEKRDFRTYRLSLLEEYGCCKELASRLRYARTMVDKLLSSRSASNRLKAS
T1 sequence (P53350 whole entry): as the sequence (P53350 whole entry T210D) above, with D210T counted along it
Protocol for full-length human PLK1: First, a baculovirus expressing full-length human PLK1 of which the N terminus is fused with GST (glutathione S-transferase) was prepared, and then the PLK1 transfected into a Spodoptera frugiperda(Sf)9 insect cell was highly expressed as a GST-fused protein. The cells were recovered and suspended in a lysis buffer (50 mM tris-hydrochloric acid buffer (pH 7.4)/150 mM sodium chloride/1 mM EDTA (ethylenediamine tetraacetic acid)/1 mM dithiothreitol/0.1% polyoxyethylene sorbitan monolaurate) to break open cells with a sonicator, and supernatant was recovered after a centrifugation. The supernatant was reacted on glutathione sepharose beads, and then the beads were washed with a lysis buffer. Thereafter, the beads were reacted in a lysis buffer containing Precision Protease to recover supernatant. […]
The reaction was carried out in accordance with the method of Toyoshima-Morimoto et al. [Nature, Vol. 410, 215-220, (2001)]. […] After washing the phosphocellulose filter with 75 mM phosphate buffer, the filter was dried to measure the radioactivity with a liquid scintillation counter. […]

On to `CC(Oc1nc(-c2cnc3ccccn23)sc1C(N)=O)c1ccccc1Cl` (centres unmarked) [Example 161], for which the EC50 in the assay on HeLaS3 cells came to 490 nM.

Turning to `C[C@@H](Oc1nc(-c2cnc3cnc(CS(C)(=O)=O)cn23)sc1C(N)=O)c1ccc(CN(C)C)cc1Cl` [Example 236], the EC50 in the assay on HeLaS3 cells is 100 nM.

Consider `CC(Oc1cc(-c2cnc3ccccn23)sc1C(N)=O)c1ccccc1[N+](=O)[O-]` (centres unmarked) [Example 44, 5-imidazo[1,2-a]pyridin-3-yl-3-[1-(2-nitrophenyl)ethoxy]thiophene-2-carboxyamide], for which the IC50 (on full-length human PLK1; in assay [1]) was 12 nM throughout. Further, in the assay on HeLaS3 cells, the EC50 is 70 nM.

For `CC(Oc1cc(-c2cnc3cnccn23)sc1C(N)=O)c1ccccc1Cl` (centres unmarked) [Example 163], the EC50 with HeLaS3 cells amounted to 660 nM.

Consider `C[C@@H](Oc1cc(-c2cnc3ccc(OCCO)cn23)sc1C(N)=O)c1ccccc1Cl` [Example 66, 3-[(1R)-1-(2-chlorophenyl)ethoxy]-5-[6-(2-hydroxyethoxy)imidazo[1,2-a]pyridin-3-yl]thiophene-2-carboxyamide], for which the EC50 in the assay with HeLaS3 cells came out at 360 nM.

As to `C[C@@H](Oc1cc(-c2cnc3ccc(C#N)cn23)sc1C(N)=O)c1ccc(CNC(C)(C)CO)cc1OC(F)F` [Example 188, 5-(6-cyanoimidazo[1,2-a]pyridin-3-yl)-3-[(1R)-1-(2-(difluoromethoxy)-4-{[(2-hydroxy-1,1-dimethylethyl)amino]methyl}phenyl)ethoxy]thiophene-2-carboxyamide], the EC50 in the assay with HeLaS3 cells came out at 390 nM.

Take `C[C@@H](Oc1cc(-c2cnc3ccc(CN4CCNCC4)cn23)sc1C(N)=O)c1ccccc1Cl` [Example 119, 3-[(1R)-1-(2-chlorophenyl)ethoxy]-5-[6-(piperazin-1-ylmethyl)imidazo[1,2-a]pyridin-3-yl]thiophene-2-carboxyamide]: the IC50 stood at 28 nM on full-length human PLK1 and 22 nM in assay [1]. Further, the EC50 in the assay with HeLaS3 cells was determined as 210 nM.
